Results reported in PubChem BioAssay AID192 (DTP/NCI, 2004).
“And” between values parts separate entries of the source, which are not always exact repeats. Equal entries are not always repeated. Inconclusive results and toxic doses are left out.

Tested on: BDF1 mice, B16 melanoma ip, median survival T/C
Experiment: NCI In Vivo Anticancer Drug Screen. Data for tumor model B16 Melanoma (intraperitoneal) in B6D2F1 (BDF1) mice
Settings: endpoint: median survival time, higher = longer survival
In short: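 Values are ratios of treated (T) to vehicle-control (C) measurements of survival or tumor size in tumor-bearing mice.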

[1] = dose: 6.25 mg/kg/injection, schedule: Q01DX009 (ip), vehicle: saline
[2] = dose: 12.5 mg/kg/injection, schedule: Q01DX009 (ip), vehicle: saline
[3] = dose: 25.0 mg/kg/injection, schedule: Q01DX009 (ip), vehicle: saline
[4] = dose: 50.0 mg/kg/injection, schedule: Q01DX009 (ip), vehicle: saline
[5] = dose: 100.0 mg/kg/injection, schedule: Q01DX009 (ip), vehicle: saline
[6] = dose: 50.0 mg/kg/injection, schedule: Q01DX009 (ip), vehicle: Klucel (hydroxypropylcellulose) (HPC)
[7] = dose: 100.0 mg/kg/injection, schedule: Q01DX009 (ip), vehicle: Klucel (hydroxypropylcellulose) (HPC)
[8] = dose: 200.0 mg/kg/injection, schedule: Q01DX009 (ip), vehicle: Klucel (hydroxypropylcellulose) (HPC)
[9] = dose: 12.5 mg/kg/injection, schedule: Q01DX009 (ip), vehicle: saline with Tween-80
[10] = dose: 25.0 mg/kg/injection, schedule: Q01DX009 (ip), vehicle: saline with Tween-80
[11] = dose: 100.0 mg/kg/injection, schedule: Q01DX009 (ip), vehicle: saline with Tween-80
[12] = dose: 25.0 mg/kg/injection, schedule: Q01DX009 (ip), vehicle: Klucel (hydroxypropylcellulose) (HPC)
[13] = dose: 400.0 mg/kg/injection, schedule: Q01DX009 (ip), vehicle: Klucel (hydroxypropylcellulose) (HPC)
[14] = dose: 50.0 mg/kg/injection, schedule: Q01DX009 (ip), vehicle: saline with Tween-80
[15] = dose: 5.0 mg/kg/injection, schedule: Q01DX009 (ip), vehicle: Klucel (hydroxypropylcellulose) (HPC)

For `Nc1nc2c(ncn2C2OC(CO)C(O)C2N)c(=O)[nH]1` (stereo unspecified), the T/C (dose: 3.12 mg/kg/injection, schedule: Q01DX009 (ip), vehicle: saline) was 95 % of control and 110 % of control, the T/C [1] was 101 % of control and 102 % of control and 104 % of control and the T/C [2] was 106 % of control and 107 % of control and 110 % of control. For the same compound, the T/C (dose: 25.0 mg/kg/injection, schedule: Q01DX005 (ip), vehicle: saline with Tween-80) was 104 % of control, the T/C [3] was 89 % of control and 101 % of control and 112 % of control and the T/C (dose: 35.0 mg/kg/injection, schedule: Q01DX005 (ip), vehicle: saline with Tween-80) was 104 % of control. For the same compound, the T/C [4] was 89 % of control and 101 % of control, the T/C (dose: 55.0 mg/kg/injection, schedule: Q01DX005 (ip), vehicle: saline with Tween-80) was 95 % of control and the T/C (dose: 80.0 mg/kg/injection, schedule: Q01DX005 (ip), vehicle: saline with Tween-80) was 104 % of control. The T/C [5] was 96 % of control.
In the case of `COC1C(OC(=O)c2ccc(C)[nH]2)C(O)C(Oc2ccc3c(O)c(NC(=O)c4ccc(O)c(CC=C(C)C)c4)c(=O)oc3c2Cl)OC1(C)C` (stereo unspecified), the T/C (dose: 6.25 mg/kg/injection, schedule: Q01DX009 (ip), vehicle: other) is reported as 101 % of control, the T/C (dose: 12.5 mg/kg/injection, schedule: Q01DX009 (ip), vehicle: other) is reported as 97 % of control and 124 % of control and the T/C (dose: 25.0 mg/kg/injection, schedule: Q01DX009 (ip), vehicle: other) is reported as 90 % of control and 91 % of control. For the same compound, the T/C (dose: 50.0 mg/kg/injection, schedule: Q01DX009 (ip), vehicle: other) was 94 % of control.
In the case of `CCCC(=O)c1ccc(OC)c(OC)c1`, the T/C [6] is reported as 86 % of control, the T/C [7] is reported as 93 % of control and the T/C [8] is reported as 96 % of control.
In the case of `CCCCN(CCCC)CCC(=O)c1ccc(OC)c2ccccc12`, the T/C [9] is reported as 99 % of control and the T/C [10] is reported as 88 % of control.
For `CC(=O)CC(=O)OCc1ccccc1`, the T/C [11] was 107 % of control, the T/C (dose: 200.0 mg/kg/injection, schedule: Q01DX009 (ip), vehicle: saline with Tween-80) was 105 % of control and the T/C (dose: 400.0 mg/kg/injection, schedule: Q01DX009 (ip), vehicle: saline with Tween-80) was 100 % of control.
In the case of `CCN(C)N=Nc1ccc(C(N)=O)cc1`, the T/C [12] is reported as 104 % of control and the T/C [6] is reported as 112 % of control.
In the case of `CC[C@@]1(O)C[C@H](OC2CC(N(C)C)C(O)C(C)O2)c2c(O)c3c(c(O)c2[C@H]1OC1CC(N(C)C)C(O)C(C)O1)C(=O)c1cccc(O)c1C3=O` (stereo partly specified), the T/C (dose: 31.2 micrograms/kg/injection, schedule: Q01DX009 (ip), vehicle: Klucel (hydroxypropylcellulose) (HPC)) is reported as 100 % of control and the T/C (dose: 62.5 micrograms/kg/injection, schedule: Q01DX009 (ip), vehicle: Klucel (hydroxypropylcellulose) (HPC)) is reported as 89 % of control.
For `O=C(O)c1cc(-c2ccc(Cl)cc2)nc2c(Cl)cccc12`, the T/C [7] was 100 % of control.
`CC[CH](C)[Hg][c]1cccc2ccccc12` (stereo unspecified) was tested, and the T/C [12] was 105 % of control and the T/C [6] was 91 % of control.
`CC12C=CC3(CCC4C(C)(C)C(O)C(=O)CC4(C)C3CC1=O)C2` (stereo unspecified) was tested, and the T/C [7] was 97 % of control, the T/C [8] was 89 % of control and the T/C [13] was 94 % of control.
In the case of `C=CCOCC(O)CN(CC(C)C)CC(C)C` (stereo unspecified), the T/C (dose: 6.25 mg/kg/injection, schedule: Q01DX009 (ip), vehicle: Klucel (hydroxypropylcellulose) (HPC)) is reported as 98 % of control, the T/C (dose: 12.5 mg/kg/injection, schedule: Q01DX009 (ip), vehicle: Klucel (hydroxypropylcellulose) (HPC)) is reported as 104 % of control and the T/C [12] is reported as 100 % of control.
In the case of `O=C(/C(=N\Nc1ccc([N+](=O)[O-])cc1)c1ccccc1)c1ccccc1`, the T/C (dose: 3.13 mg/kg/injection, schedule: Q01DX009 (ip), vehicle: saline with Tween-80) is reported as 100 % of control, the T/C (dose: 6.25 mg/kg/injection, schedule: Q01DX009 (ip), vehicle: saline with Tween-80) is reported as 95 % of control and the T/C [9] is reported as 90 % of control and 93 % of control. The T/C [14] was 90 % of control.
For `BrC[P+](CBr)(CBr)CBr`, the T/C [9] was 100 % of control, the T/C [10] was 105 % of control and the T/C [14] was 104 % of control. The T/C [11] was 89 % of control.
`NC(=O)c1csc(C2OC(CO)C(O)C2O)n1` (stereo unspecified) was tested, and the T/C (dose: 25.0 mg/kg/injection, schedule: Q01DX009 (ip), vehicle: water) was 103 % of control, the T/C (dose: 50.0 mg/kg/injection, schedule: Q01DX009 (ip), vehicle: water) was 99 % of control and the T/C (dose: 100.0 mg/kg/injection, schedule: Q01DX009 (ip), vehicle: water) was 104 % of control. For the same compound, the T/C (dose: 200.0 mg/kg/injection, schedule: Q01DX009 (ip), vehicle: water) was 111 % of control, the T/C (dose: 400.0 mg/kg/injection, schedule: Q01DX009 (ip), vehicle: water) was 110 % of control and the T/C (dose: 800.0 mg/kg/injection, schedule: Q01DX009 (ip), vehicle: water) was 99 % of control.
In the case of `CCCCOC(=O)c1ccc(NC(=O)Nc2ccccc2)cc1`, the T/C [10] is reported as 93 % of control, the T/C [14] is reported as 98 % of control and the T/C [11] is reported as 93 % of control.
With `CN(C)C1=C(N2CC2)C(=O)C(N(C)C)=C(N2CC2)C1=O` the T/C (dose: 0.12 mg/kg/injection, schedule: Q01DX009 (ip), vehicle: saline) was 106 % of control, the T/C (dose: 0.25 mg/kg/injection, schedule: Q01DX009 (ip), vehicle: saline) was 112 % of control and the T/C (dose: 0.5 mg/kg/injection, schedule: Q01DX009 (ip), vehicle: saline) was 93 % of control. The T/C (dose: 1.0 mg/kg/injection, schedule: Q01DX009 (ip), vehicle: saline) was 112 % of control.
With `Cc1nn(C2CC(O)C(O)C(CO)O2)c(=O)[nH]c1=O` (stereo unspecified) the T/C [4] was 95 % of control, the T/C [5] was 86 % of control and the T/C (dose: 400.0 mg/kg/injection, schedule: Q01DX009 (ip), vehicle: saline) was 86 % of control.
`OCC1OC(n2cnc3c(SCc4ccccc4)ncnc32)C(O)C1O` (stereo unspecified) was tested, and the T/C (dose: 37.5 mg/kg/injection, schedule: Q01DX009 (ip), vehicle: saline with Tween-80) was 121 % of control.
For `CCC[CH2][Sn]([CH2]CCC)[CH2]CCC.CCC[CH2][Sn]([CH2]CCC)[CH2]CCC`, the T/C [15] was 109 % of control.
In the case of `CC(=O)CC(=O)Nc1cccc(C)c1C`, the T/C [7] is reported as 94 % of control, the T/C [8] is reported as 86 % of control and the T/C [13] is reported as 94 % of control.
For `CC[N+](CC)(CC)CC`, the T/C (dose: 0.37 mg/kg/injection, schedule: Q01DX009 (ip), vehicle: saline with Tween-80) was 103 % of control, the T/C (dose: 0.75 mg/kg/injection, schedule: Q01DX009 (ip), vehicle: saline with Tween-80) was 100 % of control and the T/C (dose: 1.5 mg/kg/injection, schedule: Q01DX009 (ip), vehicle: saline with Tween-80) was 112 % of control. For the same compound, the T/C (dose: 3.0 mg/kg/injection, schedule: Q01DX009 (ip), vehicle: saline with Tween-80) was 120 % of control, the T/C [1] was 123 % of control and the T/C (dose: 11.0 mg/kg/injection, schedule: Q01DX009 (ip), vehicle: saline) was 112 % of control. The T/C [2] was 109 % of control, the T/C (dose: 16.5 mg/kg/injection, schedule: Q01DX009 (ip), vehicle: saline) was 108 % of control and the T/C (dose: 25.0 mg/kg/injection, schedule: Q04DX003 (ip), vehicle: saline) was 100 % of control. For the same compound, the T/C (dose: 37.5 mg/kg/injection, schedule: Q01DX009 (ip), vehicle: saline) was 108 % of control, the T/C [4] was 90 % of control and the T/C (dose: 50.0 mg/kg/injection, schedule: Q04DX003 (ip), vehicle: saline) was 100 % of control.
For `O=NN(CCBr)C(=O)NC1CCCCC1`, the T/C (dose: 100.0 mg/kg/injection, schedule: Q01DX009 (ip), vehicle: gum acacia) was 105 % of control, the T/C (dose: 200.0 mg/kg/injection, schedule: Q01DX009 (ip), vehicle: gum acacia) was 102 % of control and the T/C (dose: 400.0 mg/kg/injection, schedule: Q01DX009 (ip), vehicle: gum acacia) was 90 % of control.
`CCOC(=O)C(Cc1ccccc1)P(=O)(OCC)OCC` (stereo unspecified) was tested, and the T/C (dose: 50.0 mg/kg/injection, schedule: Q04DX003 (ip), vehicle: saline with Tween-80) was 100 % of control, the T/C (dose: 100.0 mg/kg/injection, schedule: Q04DX003 (ip), vehicle: saline with Tween-80) was 95 % of control and the T/C (dose: 200.0 mg/kg/injection, schedule: Q04DX003 (ip), vehicle: saline with Tween-80) was 90 % of control.
`N#CCCC1C2CCC(C2)C1C#N` (stereo unspecified) was tested, and the T/C [15] was 112 % of control and the T/C (dose: 10.0 mg/kg/injection, schedule: Q01DX009 (ip), vehicle: Klucel (hydroxypropylcellulose) (HPC)) was 95 % of control.
For `CN(CCCOS(C)(=O)=O)CCCOS(C)(=O)=O`, the T/C [1] was 115 % of control, the T/C (dose: 10.0 mg/kg/injection, schedule: Q01DX009 (ip), vehicle: saline) was 185 % of control and the T/C (dose: 20.0 mg/kg/injection, schedule: Q01DX009 (ip), vehicle: saline) was 150 % of control. The T/C [3] was 181 % of control and the T/C (dose: 40.0 mg/kg/injection, schedule: Q01DX009 (ip), vehicle: saline) was 285 % of control.
`CCC(CC)c1ccccn1` was tested, and the T/C (dose: 100.0 mg/kg/injection, schedule: Q01DX009 (ip), vehicle: carboxymethylcellulose (CMC)) was 101 % of control and the T/C (dose: 200.0 mg/kg/injection, schedule: Q01DX009 (ip), vehicle: carboxymethylcellulose (CMC)) was 95 % of control.
